Reference: paper PMC12979031 (Neuro-oncology, 2026)

Legend:
[1] = tested on: recurrent IDHmt gliomas; conditions: second study in this population; cited from earlier work
[2] = Surgical; type: in vivo; conditions: human, oral, 60 mg
[3] = tested on: PARP1/2; conditions: read-out: in vitro IC50 for PARP1/2 inhibition; cited from earlier work

Row | Compound | responses [1] | fraction unbound ([2]; enhancing tumor) | Kp ([2]; non-enhancing tumor / plasma) | Kp uu ([2]; non-enhancing tumor / plasma) | fraction unbound ([2]; non-enhancing tumor) | fraction unbound ([2]; plasma) | IC50 [3] [nM]
1 | O=C(c1cc(Cc2n[nH]c(=O)c3ccccc23)ccc1F)N1CCN(C(=O)C2CC2)CC1 [olaparib] | no responses | – | – | – | – | – | –
2 | C[C@]12CCCN1CC1=NNC(=O)c3cc(F)cc4[nH]c2c1c34 [pamiparib] | – | 0.076 | 0.23 | 0.92 | 0.083 | 0.031 | ~1
